# Patent US10098841B2, “Method of inducing a phase transition of a bilayer membrane vesicle” (Japan Science and Technology Agency, priority 2005, dated 2018)
# Where “and” joins values, the source holds several entries; their conditions need not be identical. Identical values can stand only once.
# Legend:
# [1] = Observation of SUV by transmission electron microscope; conditions: SUV with sodium laurate and C16-tertiary amine
# Method: A SUV dispersion of the composition shown in Table 8 was prepared in accordance with the SUV preparation method described in Example 6.
# To 200 μL of the prepared SUV dispersion, 4.3 μL of CDMT (300 mM in methanol) was added, and allowed to stand at room temperature. As a control experiment, 4.3 μL of methanol was added instead of CDMT, and allowed to stand at room temperature. Several drops of the SUV dispersion after standing were placed on a carrier, frozen with liquid nitrogen, and prepared specimens for electron microscopy (replicas) by a freeze fracturing method ordinarily performed by those skilled in the art (JEOL JFD-9010 was used). The specimens obtained were observed by TEM (JEOL JEM-1010) (acceleration voltage 100 kv). The arrows in the micrographs indicate the SUV.
# [2] = SUV membrane fusion by fluorescence dilution method; conditions: CDMT 25 or 50 equivalents; SUV with and without fluorescent agent
# Method: An SUV dispersion with a fluorescent agent and an SUV dispersion without a fluorescent agent, of the compositions shown in Table 5 were prepared according to the SUV preparation method described in Example 6.
# First, 0.2 mL of the prepared SUV dispersion with a fluorescent agent and 1.8 mL of the SUV dispersion without a fluorescent agent were mixed at room temperature. Three samples were prepared for each SUV. To two of these samples 10.8 μL (25 equivalents) or 21.7 μL (50 equivalents) of CDMT (300 mM in methanol) was added respectively, and allowed to stand at room temperature. As a control experiment, 21.7 μL of methanol was added to the remaining sample, and also allowed to stand, and then the fluorescence was measured at a given time interval.
# Unlike the mixing method of Example 7, in the case of the fluorescence dilution method of Example 8, the F value becomes smaller as fusion proceeds. […] It should be noted that in the graph of FIG. 5, it appears as if at initial state there is a difference between the control sample and the samples to which CDMT has been added.
# [3] = Membrane fusion experiment using SUV (F value); conditions: SUV with C16-tertiary amine
# Method: Sodium laurate (45.0 mM in methanol, 5.8 μL), the dihydric alcohol 1B (38.5 mM in chloroform, 6.8 μL), C16-tertiary amine (3.05 mM in chloroform, 17.0 μL), nonreduced egg yolk lecithin (13.0 mM in chloroform, 19.0 μL), and a fluorescent agent (for NBD-PE: 1.23 mM in chloroform, 10.6 μL; for Rh-PE: 4.19 mM in chloroform, 3.1 μL) were placed into a 20-mL eggplant-shaped flask, and the solvent was evaporated under reduced pressure using a rotary evaporator. The thin film formed on the inner well of the flask was further dried under reduced pressure using a vacuum pump (room temperature, 0.5 hours). Then, 4 mL of phosphate buffer (5 mM NaH2PO4/Na2HPO4, 0.15 M NaCl, pH 8.5) was added thereto, and ultrasonic waves were applied for 30 seconds using a bath-type ultrasonic wave generation device. Next, the mixture was stirred and shaken for 10 minutes with a vortex mixer at 100% strength. […]
# Using the SUV dispersion containing NBD-PE and Rh-PE obtained in Example 6, the change in fluorescence over time was measured in the same way as in the membrane fusion experiment with MLV of Example 3. The F value was calculated from the intensity of the fluorescence peaks to evaluate SUV fusion.
# [4] = Membrane fusion experiment using MLV, change in fluorescence (F value, NBD-PE to Rh-PE energy transfer); conditions: for membrane fusion of MLV (in words): from F value over time
# Description: Examples of means for evaluating and observing a phase transition such as fusion of the membranes include observation by electron microscope, quantification of the produced pseudo-ceramide (for example, by mass spectrometry), and measurement of the change in fluorescence. In the case of measuring changes in fluorescence, a compound which causes a fluorescence energy transfer to another compound that present in the vicinity of the compound is introduced as a component of the bilayer membrane. Examples of such compounds include the combination of 1,2-dimyristyl-sn-glycero-3-phosphoethanolamine-N-(7-nitro-2-1,3-benzoxadiazol-4-yl) (NBD-PE) and 1,2-dimyristyl-sn-glycero-3-phosphoethanolamine-N-(lissamine rhodamine B sulfonyl) (Rh-PE). The former is the energy donor, and the latter is the energy acceptor. […] As for evaluating changes in the fluorescence, it is possible to use the fluorescence change F that is obtained by:
# For example, when NBD-PE and Rh-PE are included in separate vesicles, the F value increases by fusion of the vesicles. To the contrary, when a vesicle including both NBD-PE and Rh-PE fuses with a vesicle including neither, the distance between the NBD-PE and Rh-PE increases so that the F value decreases.
# First, 1 mL each of the MLV dispersions that contain a tertiary amine (C8 or C16) obtained in Example 1 were mixed at room temperature. A solution of 2-chloro-4,6-dimethoxy-1,3,5-triazin (CDMT) (150 mM or 300 mM) in methanol (21.7 μL) was added thereto, and allowed to stand at room temperature. Next, to the MLV dispersion obtained in Example 2, a solution of 4-(4,6-dimethoxy-1,3,5-triazin-2-yl)-4-methylmorpholium chloride (DMT-MM) (225 mM or 300 mM) in methanol (21.7 μL), which is a water-soluble dehydrating condensing agent, was added to prepare a mixture. As a control experiment, a mixture to which 21.7 μL of methanol was added instead of the CDMT solution was prepared.
# The change in fluorescence over time of the prepared mixtures was measured with a fluorometer. The excitation wavelength was 470 nm. As mentioned above, the F value was used as the criterion for the change in fluorescence.
# [5] = Change in particle size accompanying SUV fusion (DLS); conditions: for Z average (average diameter): CDMT 50 equivalents; for number of SUVs fused, from change in particle size: about 3 hours
# Method: SUV dispersions with the compositions shown in Table 6 were prepared in accordance with the SUV preparation method described in Example 6.
# The prepared SUV dispersions were filtered through a 0.45-μm pore size filter and each was divided into two 2 mL samples, one of which was supplied with 21.7 μL (50 equivalents) of CDMT (300 mM in methanol) and the other supplied with 21.7 μL of methanol as a control experiment, and allowed to stand at room temperature. The particle size after three hours was measured by DLS.
# [6] = Change in particle size accompanying MLV fusion (DLS); conditions: MLV with C8-tertiary amine 0.2 equivalent, CDMT 50 equivalents
# Method: The MLV dispersion prepared was separated into 2 mL portions, and 50 equivalents (21.7 μL) CDMT (300 mM in methanol) was added thereto. For the control, 21.7 μL of methanol was added. Two samples were prepared and the particle size after 12 hours was measured by dynamic light scattering (DLS).
# [7] = Fusion experiment between active SUV and inactive SUV (fluorescence dilution); conditions: CDMT 35 equivalents; runs 2 and 3, one SUV inactive
# Method: In accordance with the fluorescence dilution method described in Example 8, 0.2 mL of the prepared SUV dispersion with a fluorescent agent and 1.8 mL of the SUV dispersion without a fluorescent agent were mixed at room temperature. […] Then, 15.2 μL (4.55 μmol: 35 equivalents of the total fatty acid salt of run 1) of CDMT (300 mM in methanol) was added thereto, allowed to stand at room temperature, and the change in the F values over time was measured with a fluorometer.
# [8] = Leaking of aqueous phase within SUV accompanying fusion (calcein); conditions: with fusion, CDMT 50 equivalents
# Method: Accordingly, in this example, by utilizing the property of the compound, a fusion test was performed for liposomes in which (in the inner aqueous phase) calcein has been contained at a high concentration in advance.
# The SUV was prepared according to the method described in Example 6. However, the calcein (75 mM) was added to a phosphate buffer (5 mM NaH2PO4/Na2HPO4, 0.15 M NaCl, pH 8), and ultrasonic wave treatment was performed to produce SUVs. The SUVs were separated by gel filter (Sephadex G-50, using the same phosphate buffer solution in the mobile phase) to remove the calcein present in the outside aqueous phase, giving a SUV dispersion.
# CDMT (50 equivalents) was added to the obtained SUV dispersion, and allowed to stand at room temperature and the fluorescence (520 nm) was measured (FS) after a given time, and immediately after Triton X-100 (10%, 200 μL) was added to destroy the SUV, and then the fluorescence was measured again (FT). […] The rate of leakage was calculated by the following equation.
# [formula] • F0: Fluorescence intensity at 0 hours • FS: Fluorescence intensity at each hour • FT: Fluorescence intensity after adding Triton X-100
# [9] = Solubility in the phosphate buffer used in the examples; assay type: physicochemical; conditions: aqueous buffer, buffer 5 mM NaH2PO4, 0.15 M NaCl, pH 7.5, read-out: solubility against the buffer
# Method: The solubility of the dihydric alcohol 1A against the buffer (5 mM NaH2PO4, 0.15 M NaCl, pH 7.5) used in the examples was about 10 mM.
# The solubility of the dihydric alcohol 1B against the buffer (5 mM NaH2PO4, 0.15 M NaCl, pH 7.5) used in the examples was about 0.2 mM.
structure (smiles),measurement,setting,value
"COc1nc(Cl)nc(OC)n1 [CDMT, 2-chloro-4,6-dimethoxy-1,3,5-triazin]",particle size by TEM after CDMT addition,[1],greater than 1 μm
same,"change in fluorescence, fluorescence dilution method (FIG. 5, in words)",[2],a decrease in the fluorescence was found
same,"SUV membrane fusion (F value, FIG. 4, in words)",[3],membrane fusion occurred
same,Change in fluorescence (F value),"[4]; CDMT 25 equivalents, C16 tertiary amine in MLV, 2 hr",1.64
same,Change in fluorescence (F value),"[4]; CDMT 25 equivalents, C16 tertiary amine in MLV, 5 hr",8.10
same,Change in fluorescence (F value),"[4]; CDMT 50 equivalents, C8 tertiary amine in MLV, 5 hr",2.22
same,Change in fluorescence (F value),"[4]; CDMT 50 equivalents, C8 tertiary amine in MLV, 12 hr",5.40
same,Change in fluorescence (F value),"[4]; CDMT 50 equivalents, C16 tertiary amine in MLV, 2 hr",4.41
same,Change in fluorescence (F value),"[4]; CDMT 50 equivalents, C16 tertiary amine in MLV, 5 hr",10.4
same,membrane fusion of MLV (in words),[4],membrane fusion occurs
same,Z average (average diameter),"[5]; SUV with lauric acid, 0 hr",92.7 nm
same,Z average (average diameter),"[5]; SUV with lauric acid, 3 hr",218.7 nm
same,Z average (average diameter),"[5]; SUV with oleic acid, 0 hr",66.1 nm
same,Z average (average diameter),"[5]; SUV with oleic acid, 3 hr",213.8 nm
same,"number of SUVs fused, from change in particle size",[5]; laurate SUV,10 to 20
same,"number of SUVs fused, from change in particle size",[5]; oleate SUV,30 to 40
same,Z average (average diameter),[6]; 0 hr,235.2 nm and 232.4 nm
same,Z average (average diameter),[6]; 12 hr,280.3 nm and 278.2 nm
same,"change in F value, active/inactive SUV combinations (FIG. 9, in words)",[7],the F value significantly changes
same,Rate of leakage,[8]; 1 hr,6.5%
same,Rate of leakage,[8]; 2 hr,7.1%
same,Rate of leakage,[8]; 3 hr,8% and 8.3%
"COc1nc(OC)nc([N+]2(C)CCOCC2)n1.[Cl-] [DMT-MM, 4-(4,6-dimethoxy-1,3,5-triazin-2-yl)-4-methylmorpholium chloride]",Change in fluorescence (F value),"[4]; DMT-MM 38 equivalents, MLV without tertiary amine, 36 hr",1.42
same,Change in fluorescence (F value),"[4]; DMT-MM 50 equivalents, MLV without tertiary amine, 36 hr",1.64
same,membrane fusion of MLV (in words),[4],membrane fusion occurred extremely slowly
"CCCCCCCCNCC(O)CO (stereo not drawn) [dihydric alcohol 1A, 3-octylamino-1,2-propanediol]",solubility,[9],~10 mM
"CCCCCCCCCCCCNCC(O)CO (stereo not drawn) [dihydric alcohol 1B, 3-dodecylamino-1,2-propanediol]",solubility,[9],~0.2 mM
